These are literature values, as cited in US5711967A (Spirig AG, Pharmazeutische Praeparate, priority 1991, dated 1998).

Data set [1] relates to mucosa. Conditions: release in the stomach.
The conditions of data set [2]: above pKa value of approx. 4-5.

Consider `O=C(O)Cc1ccccc1Nc1c(Cl)cccc1Cl` [diclofenac], for which the action on mucosa entry in data set [1] is “mucosa-irritating and/or mucosa-damaging”. Besides, the “distribution into the synovial fluid” value (from the blood plasma) was “concentrate in the synovial fluid, with a delay”. Also, the elimination half-life (non-delayed-action diclofenac) was 1 to 2 h. The blood concentration half-life entry (oral diclofenac preparations) was “one to two”. The “solubility in aqueous media” value in data set [2] is recorded as “increases considerably above this value”.
